Experiment [1] concerns left sciatic nerve. Put plainly: Maximum distance of nerve extension (evoked potential) after sciatic nerve transection in STZ diabetic neuropathy rats. The following applies: left sciatic nerve transected, 10 mg/kg body weight/day orally for 5 weeks. In kind it is in vivo, rat. As for the experimental part: Streptozotocin (STZ, 70 mg/kg) was intravenously injected to 6-week-old male SD rats (n=9-10) to prepare diabetic neuropathy models. After 2 weeks of the STZ administration, the left sciatic nerve of the rats was transected under anesthesia, and compound (5) was orally administered at the dose of 10 mg/kg body weight/day for 5 weeks. After the completion of the administration, the rats were anesthetized, and the distance (maximum distance of extension) from the nerve transection site to the detectable site was measured for evoked potential using a device detecting evoked potential [Neuropack 2, manufactured by NIHON KOHDEN CORPORATION]. As a result, the maximum extension of the compound (5) administration group was extended by 2.4 times as compared to that of the compound (5) non-administration group (control group).

Experiment [2] deals with GDF-15. Put plainly: GDF-15 expression in dorsal root ganglion of STZ diabetic neuropathy rats, real time quantitative RT-PCR. In kind it is in vivo, rat. As to conditions: STZ (70 mg/kg) male SD rats, 10 mg/kg body weight/day orally for 4 months. As for the experimental part:
Streptozotocin (STZ) was administered to 6-week-old male SD rats (n=5-8) at 70 mg/kg to prepare diabetic neuropathy models. Starting from 4 months of the STZ administration, compound (5) was orally administered to the rats for 4 months at the dose of 10 mg/kg body weight/day. Then, dorsal root ganglion of the rats was removed, treated with ISOGEN solution (NIPPON GENE CO., LTD.) and the total RNA was extracted.
Using the obtained total RNA, a primer depicted in 5′-ACTGCATGCCAACCAGAGC-3′ (SEQ ID:1) and a primer depicted in 5′-[…]-3′ (SEQ ID:2), which were prepared based on the reported mRNA sequence of GDF-15, and a fluorescent probe having a GDF-15 specific sequence, […] (SEQ ID:3), and acidic ribosomal phosphoprotein PO as an endogenous control, a real time quantitative RT-PCR (Applied Biosystems) was performed.

Experiment [3] has as its system GDNF. Put plainly: GDNF content of sciatic nerve of KKAy mice fed compound, measured by ELISA. In kind it is in vivo, mouse. As to conditions: 17 week-old female KKAy mice, powder feed containing 0.01% of compound for 7 weeks. As for the experimental part: 17 week-old female KKAy mice (n=10-12) were maintained for 7 weeks on a powder feed (CRF-1, manufactured by Oriental Yeast Co., Ltd.) containing 0.01% of compound (5). Then, sciatic nerve of the mouse was taken and stored at −80° C., until use for the measurement (ca. 10 months).
The stored sciatic nerve was ultrasonicated in a 20-fold volume of a homogenized buffer (0.1 M tris hydrochloride buffer containing 1M sodium chloride, 2% BSA, 2 mM EDTA, 80 trypsin unit/L of aprotinin, 0.02% sodium azide, pH 7.6) and insoluble materials were separated by centrifugation (15,000 rpm, 30 min). The GDNF content of the supernatant was measured by the following ELISA method.
Thus, an anti-hGDNF goat antibody (100 μg/ml) (Genzyme-Techne) was distributed in 10-μl portions in the wells of 96-well round bottom plates and antibody adsorption was allowed to proceed by 2 hours incubation at room temperature. After removing the antibody, each well was washed three times with a washing solution. […] After washing, 30 μl of 4-methylumbelliferyl-β-D-galactoside (produced by Sigma) (10 μg/ml) was added to the substrate, the reaction was allowed to proceed at room temperature for 4 hours and then terminated by addition of 130 μl of 0.1 M glycine-sodium hydroxide buffer (pH 10.3), and the fluorescent intensity of the 4-methylumbelliferone produced was determined (Ex: 360 nm; Em: 450 nm). […]

Regarding `Cc1ccccc1OCCCc1oc(-n2ccnc2C)nc1-c1ccc(Cl)cc1` [compound (5), 4-(4-chlorophenyl)-2-(2-methyl-1-imidazolyl)-5-[3-(2-methylphenoxy)propyl]oxazole], the “maximum extension (distance from nerve transection site to site with detectable evoked potential) relative to control group” value in experiment [1] (STZ (70 mg/kg i.v.) male SD rats) turned out to be 2.4 times. Also, in experiment [1] (STZ male SD rats), the “effect of neuroneogenesis and of restoring nerve function” value is “an effect of neuroneogenesis and an effect of restoring nerve function were observed”. In addition, the “increase of GDF-15 expression level as compared to non-administration group (control group)” value in experiment [2] is 135%. The “increase of GDNF content in the sciatic nerve as compared to the control group” value in experiment [3] was found to be 87.9%.
